What was measured:
plasma proteins = assay: Plasma protein binding test (PPB); assay type: in vitro ADME, mice; settings: mouse plasma, 5 uM, 37° C., 4 hours, 100 kD filter, western blot
Protocol: Such an increase in half-life was further confirmed by measuring plasma protein binding rates (Plasma protein binding test, PPB). […] Each of the plasma of the mice and the fusion protein (SEQ ID NO: 13), and or His tag-wild-type substance (1-81) (SEQ ID NO: 5) was incubated at a concentration of 5 uM at 37° C. for 4 hours. After that, they were centrifuged with a 100 kD filter to obtain fractions of the substance bound to the plasma proteins or fractions of the unbound substance. Each of the obtained fractions was evaluated by western blot.

MDA-MB-231 cell line = assay: Reactive oxygen generation (DCF-FA) in breast cancer cells; assay type: cell-based; settings: 1 μM, 24 hours; compared with Control and SEQ ID NO: 5
Protocol: In addition, in order to examine generation of reactive oxygen that plays an important role in cancer cell death, each test substance was treated to the MDA-MB-231 cell line at a concentration of 1 μM (Control: PBS) for 24 hours. Then, the cells were stained with DCF-FA and their fluorescence values were observed and compared at 485/535 nm.

[1] = tested on: UCP-1 (uncoupling protein 1); assay: UCP-1 expression (RT-PCR) in differentiated 3T3-L1 adipocytes; assay type: cell-based, mouse; settings: 100 nM, 30 hours
Protocol: (§1) To observe the functionality of the fusion proteins related to lipid metabolism, the 3T3-L1 mouse pre-adipocyte cell line was used as the cell line itself (undifferentiated) or by differentiating into adipocytes. Differentiation into the adipocytes was performed by inducing primary differentiation for the 3T3-L1 cells in a medium containing DMEM, 10% FBS, 10 μg/ml insulin, 0.5 mM IBMX (3-Isobutyl-1-methylxanthine), and 1 μM dexamethasone for 2 days, and inducing secondary differentiation with a medium containing DMEM, 10% FBS, and 10 μg/ml insulin for the remaining 4 days. The adipocytes in which differentiation was finally completed were treated with the test substances at a concentration of 100 nM for 30 hours (Control: PBS) and then used for each test.
UCP-1 (uncoupling protein 1) is a representative biomarker related to thermogenesis, indicating browning and energy metabolism activation of adipocytes. In order to observe changes in expression of UCP-1 mRNA and protein by treatment of the fusion proteins, mRNA and protein were isolated from the cells treated with each test substance and RT-PCR and western blot were performed.

3T3-L1 adipocytes = assay: Lipid droplet analysis (BODIPY 493/503, confocal) in 3T3-L1 adipocytes; assay type: cell-based, mouse; settings: differentiated 3T3-L1 adipocytes, 100 nM, 30 hours
Protocol: as §1
In addition, lipid droplets of adipocytes were stained with BODIPY 493/503 dye sample, and then confocal image scanning was performed to analyze the size and diameter of the lipid droplets.

cAMP (cyclic AMP) = assay: cAMP level (hTRF) in undifferentiated 3T3-L1 cells; assay type: cell-based, mouse; settings: undifferentiated 3T3-L1, 100 nM with 0.5 mM IBMX, 30 minutes; compared with Control and SEQ ID NO: 5
Protocol: as §1
Next, changes in cAMP (cyclic AMP), a signaling mediator contributing to lipolysis and energy metabolism were evaluated in the undifferentiated adipocytes. The undifferentiated cells were treated with the test substances at a concentration of 100 nM (Control: PBS) with 0.5 mM IBMX for 30 minutes. Thereafter, the level of cAMP was evaluated by the hTRF (Homogeneous Time Resolved Fluorescence) method (using CAMP Gs dynamic kit from Cisbio). As a result of the measurement, it was confirmed that the level of cAMP was higher in the groups treated with the fusion proteins (SEQ ID NOs: 1, 2, 3, 7, 13, 14, 15) and shortened sequences (sequences 9, 10, 11) compared with the Control and His tag-wild-type substance (1-81) (SEQ ID NO: 5) (FIG. 7).

[2] = tested on: follicular cells (dermal papilla cells); assay: Follicular cell proliferation by MTT assay; assay type: cell-based; settings: 100 nM, 24 hours; compared with Control (PBS)
Protocol: Whether the test substances of the present invention has effects on preventing hair loss or promoting hair growth was evaluated as follows. Specifically, it was observed whether they have efficacy of improving loss of follicular cells in scalp tissue which is a cause of hair loss, or hair growth due to an increase in hair follicles, by using dermal papilla cells and evaluating cell proliferation of follicular cells.
The follicular cells were treated with each test substance 100 nM (control: PBS) for 24 hours, and the degree of cell proliferation was evaluated by MTT assay.

[3] = tested on: sciatic nerve transection mouse model; assay: Sciatic nerve transection muscle atrophy model; assay type: in vivo, C57BL/6 male mice; settings: versus control; for Grip strength: 5.0 mg/kg subcutaneous 6 times a week for 9 weeks; for Muscle mass (DXA assay): 5.0 mg/kg subcutaneous 6 times a week, fourth week
Protocol: The effects of the test substances on muscle diseases accompanied by muscle loss were evaluated using a sciatic nerve transection mouse model.
In the sciatic nerve transection mouse model, muscle atrophy was induced as follows. The thigh muscles of C57BL/6 male mice were transversely incised to expose sciatic nerves, and then the sciatic nerves were transected to weaken the nerves in the muscle tissue and induce muscle atrophy. The incised site was sutured, and a recovery period of one week was provided after the surgery.
To each mouse after the recovery period, the test substance (Control-PBS; and fusion protein) assigned to each group was subcutaneously injected at a concentration of 5.0 mg/kg 6 times a week for 9 weeks (Control: n=8, No. 13: n=9, No. 14: n=9, No. 15: n=8). The effects of improving muscle loss were measured with an X-ray body composition analyzer (DXA assay) in the fourth week of test substance administration, and the effects of improving muscle function was compared by measuring grip strength.

[4] = Half-life in mice, NIR dye-conjugated substance, plasma fluorescence
Protocol: For evaluation, ten-week-old C57BL/6 mice were used, and the mice were reared in a specialized animal facility which provided a normal diet and a 12/12 hour night/day cycle and then used for experimentation.
The synthetic peptide (SEQ ID NO: 8) and fusion protein (SEQ ID NO: 13) were each injected into the mice at a concentration of 2.5 mg/kg, and blood was collected at 0, 0.5, 2, 4, 24 hours after injection. The collected blood was centrifuged and the obtained plasma was analyzed. At this time, in order to perform effective quantification of the substances, each substance was conjugated with Dylight 680 Near-Infrared dye (NIR) in advance prior to injection, and the finally collected blood samples were examined by observing fluorescent signals with a SpectraMax i3 microplate reader device.

[5] = tested on: Akt and S6 (phosphorylation, p-Akt/p-S6) in C2C12 mouse skeletal muscle cell line; assay: Akt and S6 phosphorylation (western blot) in C2C12 muscle cells; assay type: cell-based; settings: 2 hours
Protocol: In order to evaluate functions related to muscle loss diseases, each test substance was treated to the undifferentiated C2C12 mouse skeletal muscle cell line (mouse myoblast cell line) or the cell line in which differentiation into myotubes was completed. Differentiation of the cell line into myotubes was performed by conducting addition of 2% horse serum to culture medium and replacement with new medium every two days for a total of 4 days.
To the undifferentiated or differentiated cell lines, the test substances, fusion proteins (SEQ ID NOs: 1, 2, 3, 7, 14 and 15) were treated at a concentration of 100 nM (Control: PBS treated group) for 2 hours. Thereafter, the cells were immediately washed once and the cells were lysed with RIPA buffer (Radioimmunoprecipitation assay buffer). The activity of Akt and S6 (phosphorylation, p-Akt/p-S6) was observed by western blot. Akt phosphorylation is a well-known marker of activation of cell signaling pathways, and is an indicator of beneficial effects on muscle cells such as promotion of glucose metabolism and promotion of muscle biosynthesis. Similarly, S6 phosphorylation is a well-known marker of mTOR activity, and the activity of mTOR is an indicator showing muscle biosynthesis and various cell signaling pathways.

[6] = tested on: MDA-MB-231 triple-negative breast cancer cell line; assay: MTT cell viability in breast cancer cells; assay type: cell-based; settings: 1 μM, 48 hours; compared with Control (PBS), SEQ ID NO: 4 and SEQ ID NO: 5
Protocol: Next, the test substances, the fusion proteins (SEQ ID NO: 1, 2, 3, 7, 14, 15) and shortened sequences (SEQ ID NOs: 9, 10, 11, 12) were treated to MDA-MB-231 triple-negative breast cancer cell line at a concentration of 1 μM (Control: PBS) for 48 hours. Thereafter, the cells were washed with PBS once, and the cells were suspended in serum-free buffer. The MTT (3-[4,5-dimethylthiazol-2-yl]-2,5-diphenyltetrazolium bromide) substance was added thereto at 0.5 mg/ml and incubated at 37° C. for 2 hours. Then, they were washed with PBS once, and the cells were lysed with DMSO for 15 minutes. The solution was transferred to a new plate and the absorbance was measured at 590 nm using a microplate reader.

[7] = tested on: diet-induced obesity-induced impaired glucose tolerance mice; assay: Diet-induced obesity-induced impaired glucose tolerance model (glucose tolerance test); assay type: in vivo, C57BL/6N mice; settings: 5.0 mg/kg 1 hour before intraperitoneal 20% glucose, after 8 hours fasting
Protocol: In order to secure an impaired glucose tolerance model, conditions causing glucose metabolic disorders in mice by diet-induced obesity were designed. As an animal model, 5-week-old male C57BL/6N mice were obtained and after undergoing an acclimation period by providing a normal diet for 1 week, they were used, and the housing conditions were maintained at 18~24° C., 50~60% humidity, and ad libitum feeding with free access to feed and water was carried out during both the acclimation period and experimental period.
In order to induce impaired glucose tolerance to the mice which had undergone the acclimation period of 1 week, a high-fat diet was supplied to induce obesity. The high-fat diet was provided by preparing as Table 10 below.
The obesity-induced mice were divided into a control group (negative control group; n=14) and an experimental group (fusion protein SEQ ID NOs: 14, 15; No. 14: n=9, No. 15: n=9) and subjected to fasting for 8 hours. Thereafter, PBS to the control, and the fusion protein to the experimental group were administered at a concentration of 5.0 mg/kg, and after 1 hours, a 20% glucose solution was intraperitoneally injected. Blood was collected at each time point and analyzed using a glucometer.

[8] = Table 6, C2C12, 100 nM, differentiation state not given

| Substance | Binding rate with the plasma proteins (plasma proteins) [%] | Reactive oxygen generation (MDA-MB-231 cell line) | mRNA level of UCP-1 [1] | Lipid droplet size (3T3-L1 adipocytes) | Maximum lipid droplet diameter per cell (3T3-L1 adipocytes) | Total lipid droplet area (3T3-L1 adipocytes) | Level of cAMP (cAMP (cyclic AMP)) | Cell viability (MTT, cell proliferation) [2] | Grip strength [3] | Muscle mass (DXA assay) [3] | Half-life increase of fusion protein versus synthetic peptide (SEQ ID NO: 8) ([4]; 2.5 mg/kg) | Half-life ([4]; injected at 2.5 mg/kg, Dylight 680 NIR-conjugated, plasma at 0, 0.5, 2, 4, 24 hours) [h] | Activity (% increase compared to control) Akt [5, 8] [%] | Activity (% increase compared to control) S6 [5, 8] [%] | Activity of Akt and S6 compared with control and His tag-wild-type substance (SEQ ID NO: 5) ([5]; differentiated cell line, 100 nM) | Cell viability (MTT) [6] | Blood glucose variation over time (GLUAUC) compared with the control group [7] |
| --- | --- | --- | --- | --- | --- | --- | --- | --- | --- | --- | --- | --- | --- | --- | --- | --- | --- |
| SEQ ID NO: 13: Recombinant protein: Wild-type substance (1-81)-Shortened linker-Fc fusion | 74 | generated higher | significantly increased | reduced at a significant level | reduced at a significant level | reduced at a significant level | higher | significantly increased | higher performance | significantly increased | approximately 11.8 times | 18.9 | – | – | – | – | – |
| SEQ ID NO: 15: Recombinant protein: Shortened substance (1-47)-Shortened linker-Fc fusion | – | generated higher | – | – | – | – | higher | significantly increased | higher performance | significantly increased | – | – | 548 | 232 | significantly higher activity | significantly low | significant difference |

Source: patent US20260274910A1, “SINGLE FUSION PROTEIN AND PHARMACEUTICAL COMPOSITION” (MEDI&GENE INC., priority 2023, published 2026)
